Assay results as given in US20250320246A1, “3-AZASTEROID COMPOUNDS FOR THE TREATMENT OF DISEASES RELATED TO MITROCHONDRIAL FUNCTION” (NZP UK LIMITED, priority 2022, published 2025).
Where a name gives a salt, the structure may show the parent alone.

Key:
Type in all cases: cell-based, human
[1] = test system: sporadic PD patient fibroblasts; assay: Cellular ATP levels in sporadic PD patient fibroblasts, full ATP assay; settings: 24 h, 3 sporadic PD patient fibroblasts; for EC50: 8-point range 0.06 nM-300 nM; for Emax at 0.3 µM: max response with highest dose of compound (300 nM), read-out: ATP % of vehicle, top %; for activity at 60 pM: max response with lowest dose of compound (0.06 nM), read-out: ATP % of vehicle, bottom %
Protocol: (§1) Primary fibroblast cells were cultured continuously in Glucose based medium (high glucose (4500 mg/L) Dulbecco's Modified Eagle's medium (DMEM; Sigma-Aldrich) supplemented with 10% fetal bovine serum (Sigma-Aldrich), 100 IU/mL penicillin, 100 μg/mL streptomycin (Lonza), 1 mM sodium pyruvate (Sigma-Aldrich) and 50 μg/mL uridine (Sigma-Aldrich)). Unless otherwise stated, 24 hours prior to analysis, the Glucose based medium was exchanged for Galactose based medium (glucose-free DMEM (Gibco) with the same supplementation and in addition, 5 mM galactose (Sigma-Aldrich)). All cells were assessed between passage 6-10.
The ATP protocol is generally as described in Mortiboys et al 2008. Briefly, fibroblasts were cultured as and plated into white 384 well plates at a concentration of 5000 cells per well in 50 μl of media volume. The plates are left overnight in an incubator to allow the fibroblasts to adhere to the plate surface. The following morning the Glucose based medium is replaced with 25 μl of Galactose based medium. The plates were then spiked with the compounds using a ECHO 550 liquid handling system. The wells were dosed to provide an 8-point concentration range of 0.06 nM-300 nM of compound. After dosing the wells are topped up with a further 25 μl of Galactose based medium and then left in an incubator for 24 hours. Following this incubation, the medium is removed from the plate and the wells are washed twice with sterile PBS. The wells are filled with 25 μl of Sterile PBS followed by 12.5 μl of Lysis solution from the ATPlite™ Luminescence ATP detection assay system (Perkin Elmer), including 16 cell free wells to use as blank controls. The plate is then placed on a rotary shaker for 5 mins at 700 rpm. Following the shaking 12.5 μl of ATP substrate solution (Perkin Elmer) is added to each well and a further 5 min of shaking. The plate is then placed in darkness for 10 minutes prior to reading. Using a PHERAStar® plate reader, luminescence intensity is recorded. Following the ATP assay the plates are immediately assayed for DNA content in a CyQUANT® assay.
(§2) Immediately following The ATP assay DNA content is assessed with the CyQUANT® NF Cell Proliferation Assay Kit (ThermoFisher). CyQUANT® buffer is prepared immediately before the assay and is comprised of 1 μl CyQUANT® dye per ml×1 HBSS solution. 12.5 μl of CyQUANT® buffer is added to each well. Plate left in incubator for 1 hour then read on a PHERAStar© Plate reader with excitation at 497 nm and emission at 520 nm.
ATP Quantification for each well is determined using the following formula: […]
After the assays had been repeated in triplicate per line and compound the data was then inputted into Graph pad Prism 7 software suite where a dose response curve is generated using the default “[Agonist] vs response(three parameters)” equation.
From this EC50 values, lowest response and maximal response were taken and used to calculate the Geometric mean between the 5 different lines assessed.

[2] = test system: sporadic PD patient fibroblasts; assay: Mitochondrial membrane potential (MMP, TMRM) in sporadic PD patient fibroblasts; settings: 24 h, 3 sporadic PD patient fibroblasts; for EC50: 8-point range 0.06 nM-300 nM; for Emax: max response with highest dose of compound (300 nM), read-out: MMP % of vehicle, top %; for activity at 60 pM: max response with lowest dose of compound (0.06 nM), read-out: MMP % of vehicle, bottom %
Protocol: as §1
Fibroblasts were cultured and plated into a greiner black 384 μClear® plate at a concentration of 1000 cells per well in 50 μl of media volume. The plates are left overnight in an incubator to allow the fibroblasts to adhere to the plate surface. The following morning the Glucose based medium is replaced with 25 μl of Galactose based medium. The plates were then dosed with the compounds using an ECHO® 550 liquid handling system. The wells were dosed to provide an 8-point concentration range of 0.06 nM-300 nM of compound. After dosing the wells are topped up with a further 25 μl of Galactose based medium and then left in an incubator for 24 hours. After 24 hours, the medium is removed from the wells and replaced with 25 μl phenol free Minimal essential medium supplemented with 10% FBS, 1% Penicillin-streptomycin, 1% sodium pyruvate, 0.1% uridine, 1% non-essential amino acids and 1% MEM vitamins with 80 nM TMRM (Sigma) and 10 μM Hoechst Stain (Sigma). The plate is returned to the incubator for another hour after which the stain medium is removed and replaced with 25 μl Phenol free MEM. The plate is then imaged using an IN Cell high content microscope (GE Healthcare) with fields of view per well in 2 channels, Cy3 excitation 542 nm, emission 604-64 nm; and the DAPI excitation 350 nm, emission 450-55 nm at 37° C. with CO2. After imaging the plate is disposed of and the images are Data mined using the INCell developer Toolkit (GE Healthcare).
After the assays had been repeated in triplicate per line and compound the data was then inputted into Graph pad Prism 7 software suite where a dose response curve is generated using the default “[Agonist] vs response(three parameters)” equation. […]

[3] = test system: sporadic PD patient fibroblasts; assay: Cellular ATP levels in sporadic PD patient fibroblasts, Preliminary ATP assay; settings: for activity at 0.1 µM / activity at 1 µM: Homo sapiens, Fibroblast; for activity at 0.1 µM: read-out: Average ATP Response 100 nM; for activity at 1 µM: read-out: Average ATP Response 1 μM
Protocol: In some cases, a preliminary ATP protocol was used in which EC50 was not determined. The preliminary ATP protocol is generally as described in Mortiboys et al 2008. Briefly, fibroblasts were cultured and plated into white, clear-bottom 384 well plates at a concentration of 4000 cells per well in 50 μl of media volume. The plates are left overnight in an incubator to allow the fibroblasts to adhere to the plate surface. The following morning the Glucose based medium is replaced with 25 μl of Galactose based medium. The cells were then dosed with 100 nM and 1 μM concentrations of the compounds using a ECHO 550 liquid handling system. After dosing the wells are topped up with a further 25 μl of Galactose based medium and then left in an incubator for 24 hours. Following this incubation, the medium is removed from the plate and the wells are washed twice with sterile PBS. The wells are filled with 20 μl of Sterile PBS followed by 10 μl of Lysis solution from the ATPlite™ Luminescence ATP detection assay system (Perkin Elmer), including 14 cell free wells to use as blank controls. The plate is then placed on a rotary shaker for 10 mins at 700 rpm. Following the shaking 10 μl of ATP substrate solution (Perkin Elmer) is added to each well and a further 5 min of shaking. The plate is then incubated in the dark for 10 minutes prior to reading. Using a FLUOstar® Omega plate reader, luminescence intensity is recorded. Following the ATP assay the plates are immediately assayed for DNA content in a CyQUANT® assay.
as §2, with “of 2” for “of 1”, “solution. 10” for “solution. 12.5”, “well. Cell plates were then incubated” for “well. Plate left in incubator”, “hour before being” for “hour then”, “a FLUOStar®” for “a PHERAStar©”
The ATP Quantification for each well is determined as set out above.

[4] = 100 nM, 24 h, % of vehicle treated sPD fibroblasts, 3 sporadic PD patients
[5] = 1 μM, 24 h, % of vehicle treated sPD fibroblasts, 3 sporadic PD patients

Compound `C[C@H](CCCC(=O)O)[C@H]1CC[C@H]2[C@@H]3[C@@H](O)C[C@@H]4CN(C)CC[C@]4(C)[C@H]3CC[C@]12C` [Compound 31b, N-Methyl-3-aza-7β-hydroxy-25-homo-5β-cholan-25-oic acid hydrotrifluoroacetate] has an EC50 ([1]; Homo sapiens, Fibroblast) of 0.266 nM, an Emax at 0.3 µM ([1]; Homo sapiens, Fibroblast) of 161% and an activity at 60 pM ([1]; Homo sapiens, Fibroblast) of 91.7%. It also gave an EC50 ([2]; Homo sapiens, Fibroblast) of 6.1 nM, an Emax ([2]; Homo sapiens, Fibroblast) of 95.1% and an activity at 60 pM ([2]; Homo sapiens, Fibroblast) of 86.5%.

Work on `C[C@H](CCC(=O)O)[C@H]1CC[C@H]2[C@@H]3[C@@H](O)C[C@@H]4CN(C)CC[C@]4(C)[C@H]3CC[C@]12C` [Compound 33, N-Methyl-3-aza-7β-hydroxy-5β-cholan-24-oic acid hydrochloride] yielded an EC50 ([1]; hydrochloride) of 0.75 nM, an activity at 60 pM ([1]; Homo sapiens, Fibroblast) of 88.8% and an EC50 ([2]; hydrochloride) of 18.3 nM. It also gave an activity at 60 pM ([2]; Homo sapiens, Fibroblast) of 82.3%.

With `C[C@H](CCC(=O)O)[C@H]1CC[C@H]2[C@@H]3[C@@H](O)C[C@@H]4CN(C(=O)CO)CC[C@]4(C)[C@H]3CC[C@]12C` [Compound 40a, N-Glycolyl-3-aza-7β-hydroxy-5β-cholan-24-oic acid] the EC50 ([1]; Homo sapiens, Fibroblast) was 22.8 nM, the Emax at 0.3 µM ([1]; Homo sapiens, Fibroblast) was 103% and the activity at 60 pM ([1]; Homo sapiens, Fibroblast) was 89.9%. For the same compound, the EC50 ([2]; Homo sapiens, Fibroblast) was 65.3 nM, the Emax ([2]; Homo sapiens, Fibroblast) was 106% and the activity at 60 pM ([2]; Homo sapiens, Fibroblast) was 93.5%.

`CC(C)C[C@H](NC(=O)CCC[C@@H](C)[C@H]1CC[C@H]2[C@@H]3[C@@H](O)C[C@@H]4CNCC[C@]4(C)[C@H]3CC[C@]12C)C(=O)O` [Compound 75b, N-(3-Aza-7β-hydroxy-25-homo-5β-cholan-25-oyl)-(S)-2-amino-4-methylpentanoic acid] showed an activity at 0.1 µM [3, 4] of 112% and an activity at 1 µM [3, 5] of 106%.

`C[C@H](CCCC(=O)NCCCC[C@H](N)C(=O)O)[C@H]1CC[C@H]2[C@@H]3[C@@H](O)C[C@@H]4CNCC[C@]4(C)[C@H]3CC[C@]12C` [Compound 76b, N-(3-Aza-7β-hydroxy-25-homo-5β-cholan-25-oyl)-(2S)-2,6-diaminohexanoic acid] was tested, and the activity at 0.1 µM [3, 4] was 105% and the activity at 1 µM [3, 5] was 106%.

Compound `C[C@H](CCCC(=O)N[C@@H](Cc1ccc(O)cc1)C(=O)O)[C@H]1CC[C@H]2[C@@H]3[C@@H](O)C[C@@H]4CNCC[C@]4(C)[C@H]3CC[C@]12C` [Compound 77b, N-(3-Aza-7β-hydroxy-25-homo-5β-cholan-25-oyl)-(2S)-2-amino-3-(4-hydroxyphenyl)propanoic acid] has an activity at 0.1 µM [3, 4] of 109% and an activity at 1 µM [3, 5] of 113%.

Work on `C[C@H](CCC(=O)N1CC2(COC2)C1)[C@H]1CC[C@H]2[C@@H]3[C@@H](O)C[C@@H]4CN(C(=O)OCc5ccccc5)CC[C@]4(C)[C@H]3CC[C@]12C` [Compound 78a, N-{(benzyloxycarbonyl)-3-aza-7β-hydroxy-5β-cholan-24-oyl}-2-oxa-6-azospiro{3,3}heptane] yielded an activity at 0.1 µM [3, 4] of 121% and an activity at 1 µM [3, 5] of 120%.

In the case of `C[C@H](CCC(=O)N1CCC(=O)CC1)[C@H]1CC[C@H]2[C@@H]3[C@@H](O)C[C@@H]4CN(C(=O)OCc5ccccc5)CC[C@]4(C)[C@H]3CC[C@]12C` [Compound 79a, N-{(benzyloxycarbonyl)-3-aza-7β-hydroxy-5β-cholan-24-oyl}-4-piperidone], the activity at 0.1 µM [3, 4] is reported as 116% and the activity at 1 µM [3, 5] is reported as 122%.

`C[C@H](CCCC(=O)NC1CCOC1)[C@H]1CC[C@H]2[C@@H]3[C@@H](O)C[C@@H]4CN(C(=O)OCc5ccccc5)CC[C@]4(C)[C@H]3CC[C@]12C` (stereo partly drawn) [Compound 80b, N-{(benzyloxycarbonyl)-3-aza-7β-hydroxy-25-homo-5β-cholan-25-oyl}-3-aminotetrahydrofuran] was tested, and the activity at 0.1 µM [3, 4] was 122% and the activity at 1 µM [3, 5] was 120%.

`C[C@H](CCC(=O)N1Cc2ccccc2C1)[C@H]1CC[C@H]2[C@@H]3[C@@H](O)C[C@@H]4CNCC[C@]4(C)[C@H]3CC[C@]12C` [Compound 81a] gave an activity at 0.1 µM [3, 4] of 94.2% and an activity at 1 µM [3, 5] of 102%.

Work on `C[C@H](CCCC(=O)NC1CCOC1)[C@H]1CC[C@H]2[C@@H]3[C@@H](O)C[C@@H]4CNCC[C@]4(C)[C@H]3CC[C@]12C` (stereo partly drawn) [Compound 82b, N-{(3-aza-7β-hydroxy-25-homo-5β-cholan-25-oyl)}-3-aminotetrahydrofuran] yielded an activity at 0.1 µM [3, 4] of 96.2% and an activity at 1 µM [3, 5] of 97.5%.

In the case of “S-(3-Aza-7β-hydroxy-5β-cholan-24-oyl)-phenylmethanethiol [Compound 64a]”, the “ATP production relative to control levels” value ([3]; 100 nM) is reported as “returning ATP production to control levels”, the “Average ATP Response 100 nM” value [3, 4] is reported as 118.2% and the “Average ATP Response 1 μM” value [3, 5] is reported as 111.4%.
